Assay results as given in PMC9234961 (Journal of Medicinal Chemistry, 2022).

Legend:
kinases (468) [1] = molecular target: kinases (468) (Homo sapiens, UniProt O43353); settings: kinase RIPK2 (Entrez RIPK2); compound concentration 1000 nM
kinases (468) [2] = molecular target: kinases (468) (Homo sapiens, UniProt P00519, Y253F); settings: ABL1(Y253F)-phosphorylated; 1000 nM
kinases (468) [3] = molecular target: kinases (468) (Homo sapiens, UniProt P00533, T790M); settings: EGFR(T790M); 1000 nM
kinases (468) [4] = molecular target: kinases (468) (Homo sapiens, UniProt P14616); settings: INSRR; 1000 nM
kinases (468) [5] = molecular target: kinases (468) (Homo sapiens, UniProt P15735); settings: PHKG2; 1000 nM
kinases (468) [6] = molecular target: kinases (468) (Homo sapiens, UniProt P35590); settings: kinase TIE1 (Entrez TIE1); compound concentration 1000 nM
kinases (468) [7] = molecular target: kinases (468) (Homo sapiens, UniProt P42336, M1043I); settings: PIK3CA(M1043I); 1000 nM
kinases (468) (Homo sapiens, UniProt P42336, M1043I), sequence (P42336 whole entry M1043I): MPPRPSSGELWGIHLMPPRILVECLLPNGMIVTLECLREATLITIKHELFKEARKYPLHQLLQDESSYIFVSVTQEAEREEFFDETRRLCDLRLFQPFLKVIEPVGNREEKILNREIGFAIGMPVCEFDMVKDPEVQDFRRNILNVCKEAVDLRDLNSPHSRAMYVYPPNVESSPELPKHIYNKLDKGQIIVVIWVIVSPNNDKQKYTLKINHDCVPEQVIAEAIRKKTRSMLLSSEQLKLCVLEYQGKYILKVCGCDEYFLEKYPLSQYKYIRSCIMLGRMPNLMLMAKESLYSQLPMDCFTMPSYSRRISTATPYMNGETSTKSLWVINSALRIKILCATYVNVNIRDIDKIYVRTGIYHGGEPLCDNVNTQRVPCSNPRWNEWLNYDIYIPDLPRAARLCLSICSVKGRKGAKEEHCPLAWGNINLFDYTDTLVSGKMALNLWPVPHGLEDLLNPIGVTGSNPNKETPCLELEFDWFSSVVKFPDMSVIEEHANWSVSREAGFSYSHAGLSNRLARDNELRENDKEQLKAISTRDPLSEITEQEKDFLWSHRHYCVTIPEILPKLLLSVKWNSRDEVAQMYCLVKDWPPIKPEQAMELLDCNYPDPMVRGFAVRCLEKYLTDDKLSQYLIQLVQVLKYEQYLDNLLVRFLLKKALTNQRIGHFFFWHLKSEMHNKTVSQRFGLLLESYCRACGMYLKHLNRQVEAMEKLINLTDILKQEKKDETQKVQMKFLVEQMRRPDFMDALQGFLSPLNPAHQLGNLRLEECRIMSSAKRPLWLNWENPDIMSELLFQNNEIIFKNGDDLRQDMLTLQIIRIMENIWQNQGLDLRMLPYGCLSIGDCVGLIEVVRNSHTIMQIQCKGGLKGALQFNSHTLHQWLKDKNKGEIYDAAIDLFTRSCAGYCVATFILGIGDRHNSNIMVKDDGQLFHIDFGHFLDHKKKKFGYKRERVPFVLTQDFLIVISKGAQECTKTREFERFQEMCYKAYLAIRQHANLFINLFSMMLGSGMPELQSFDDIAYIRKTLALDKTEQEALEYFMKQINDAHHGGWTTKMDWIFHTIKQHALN

kinases (468) [8] = molecular target: kinases (468) (Homo sapiens, UniProt P42679); settings: CTK (MATK); 1000 nM
kinases (468) (Homo sapiens, UniProt P42679), sequence (P42679 whole entry): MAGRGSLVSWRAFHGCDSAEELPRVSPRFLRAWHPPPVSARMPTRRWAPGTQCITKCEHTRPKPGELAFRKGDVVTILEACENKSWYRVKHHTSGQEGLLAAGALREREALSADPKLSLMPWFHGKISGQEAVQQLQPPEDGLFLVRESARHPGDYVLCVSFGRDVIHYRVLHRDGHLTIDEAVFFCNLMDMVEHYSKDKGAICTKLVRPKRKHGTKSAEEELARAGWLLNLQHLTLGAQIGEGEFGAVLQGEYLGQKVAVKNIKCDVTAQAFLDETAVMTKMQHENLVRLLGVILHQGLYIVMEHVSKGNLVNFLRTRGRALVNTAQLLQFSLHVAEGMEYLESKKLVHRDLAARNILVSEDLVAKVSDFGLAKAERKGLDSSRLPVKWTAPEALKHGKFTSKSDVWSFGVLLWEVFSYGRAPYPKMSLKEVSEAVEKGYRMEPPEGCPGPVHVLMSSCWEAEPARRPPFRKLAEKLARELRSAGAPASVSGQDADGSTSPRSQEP

kinases (468) [9] = molecular target: kinases (468) (Homo sapiens, UniProt P49761); settings: CLK3; 1000 nM
kinases (468) (Homo sapiens, UniProt P49761), sequence (P49761 whole entry): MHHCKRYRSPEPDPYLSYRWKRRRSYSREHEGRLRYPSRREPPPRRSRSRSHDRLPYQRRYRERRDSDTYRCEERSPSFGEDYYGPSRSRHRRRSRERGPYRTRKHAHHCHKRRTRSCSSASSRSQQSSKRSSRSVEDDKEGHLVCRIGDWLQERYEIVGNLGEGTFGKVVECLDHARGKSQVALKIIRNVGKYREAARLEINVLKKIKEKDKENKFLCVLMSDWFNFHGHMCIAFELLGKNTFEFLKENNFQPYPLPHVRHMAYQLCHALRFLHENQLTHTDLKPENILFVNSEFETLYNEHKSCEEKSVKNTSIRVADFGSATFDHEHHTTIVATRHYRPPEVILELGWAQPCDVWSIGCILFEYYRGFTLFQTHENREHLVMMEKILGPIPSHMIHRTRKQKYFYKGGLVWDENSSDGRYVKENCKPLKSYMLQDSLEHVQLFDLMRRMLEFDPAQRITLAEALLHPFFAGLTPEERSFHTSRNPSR

kinases (468) [10] = molecular target: kinases (468) (Homo sapiens, UniProt P49841); settings: GSK3B; 1000 nM
kinases (468) [11] = molecular target: kinases (468) (Homo sapiens, UniProt P53779); settings: JNK3 (MAPK10); 1000 nM
kinases (468) (Homo sapiens, UniProt P53779), sequence (P53779 whole entry): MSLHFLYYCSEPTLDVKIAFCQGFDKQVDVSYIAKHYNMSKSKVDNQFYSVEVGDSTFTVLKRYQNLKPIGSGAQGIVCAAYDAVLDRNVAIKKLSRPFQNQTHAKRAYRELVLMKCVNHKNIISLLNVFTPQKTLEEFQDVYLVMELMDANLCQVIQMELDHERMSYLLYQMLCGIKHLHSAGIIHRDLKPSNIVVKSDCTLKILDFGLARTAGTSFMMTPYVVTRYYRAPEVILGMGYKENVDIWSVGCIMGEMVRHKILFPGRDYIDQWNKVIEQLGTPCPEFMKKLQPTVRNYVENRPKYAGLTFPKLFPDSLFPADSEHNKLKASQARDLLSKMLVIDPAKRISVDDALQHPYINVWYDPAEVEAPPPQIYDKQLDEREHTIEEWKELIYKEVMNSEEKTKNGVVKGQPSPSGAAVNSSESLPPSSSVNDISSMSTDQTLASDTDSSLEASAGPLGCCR

kinases (468) [12] = molecular target: kinases (468) (Homo sapiens, UniProt P54760); settings: EPHB4; 1000 nM
kinases (468) (Homo sapiens, UniProt P54760), sequence (P54760 16-987): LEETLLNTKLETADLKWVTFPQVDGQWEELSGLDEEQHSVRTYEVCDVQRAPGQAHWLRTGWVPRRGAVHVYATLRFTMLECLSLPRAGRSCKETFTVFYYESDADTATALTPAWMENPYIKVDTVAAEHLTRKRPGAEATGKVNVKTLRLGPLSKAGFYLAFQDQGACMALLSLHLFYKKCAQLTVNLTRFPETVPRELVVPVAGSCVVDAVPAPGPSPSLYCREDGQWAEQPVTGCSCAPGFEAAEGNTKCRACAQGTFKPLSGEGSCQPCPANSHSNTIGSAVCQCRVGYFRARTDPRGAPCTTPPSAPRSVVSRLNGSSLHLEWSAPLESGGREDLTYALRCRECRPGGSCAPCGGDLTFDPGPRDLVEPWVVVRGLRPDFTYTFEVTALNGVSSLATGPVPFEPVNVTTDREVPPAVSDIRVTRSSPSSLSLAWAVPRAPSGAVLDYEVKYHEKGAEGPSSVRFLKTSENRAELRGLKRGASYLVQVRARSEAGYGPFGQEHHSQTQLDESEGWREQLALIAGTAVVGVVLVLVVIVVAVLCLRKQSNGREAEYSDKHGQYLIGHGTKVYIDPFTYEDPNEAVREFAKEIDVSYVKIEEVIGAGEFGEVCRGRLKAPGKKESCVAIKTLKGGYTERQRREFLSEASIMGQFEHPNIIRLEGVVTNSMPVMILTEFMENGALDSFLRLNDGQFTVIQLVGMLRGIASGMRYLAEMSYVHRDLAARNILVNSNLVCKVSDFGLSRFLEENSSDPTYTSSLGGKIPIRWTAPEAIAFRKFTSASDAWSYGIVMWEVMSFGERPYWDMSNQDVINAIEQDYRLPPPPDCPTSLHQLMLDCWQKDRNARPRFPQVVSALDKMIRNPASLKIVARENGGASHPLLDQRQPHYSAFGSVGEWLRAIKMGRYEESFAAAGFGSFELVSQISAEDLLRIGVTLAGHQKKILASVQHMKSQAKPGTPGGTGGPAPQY

kinases (468) [13] = molecular target: kinases (468) (Homo sapiens, UniProt P78368); settings: CSNK1G2; 1000 nM
kinases (468) [14] = molecular target: kinases (468) (Homo sapiens, UniProt Q00536); settings: PCTK1 (CDK16); 1000 nM
kinases (468) [15] = molecular target: kinases (468) (Homo sapiens, UniProt Q13043); settings: MST1 (STK4); 1000 nM
kinases (468) [16] = molecular target: kinases (468) (Homo sapiens, UniProt Q13523); settings: PRP4 (PRPF4B); 1000 nM
kinases (468) [17] = molecular target: kinases (468) (Homo sapiens, UniProt Q13873); settings: BMPR2; 1000 nM
kinases (468) [18] = molecular target: kinases (468) (Homo sapiens, UniProt Q16288); settings: kinase TRKC (Entrez NTRK3); compound concentration 1000 nM
kinases (468) [19] = molecular target: kinases (468) (Homo sapiens, UniProt Q16816); settings: PHKG1; 1000 nM
kinases (468) [20] = molecular target: kinases (468) (Homo sapiens, UniProt Q56UN5); settings: kinase YSK4 (Entrez MAP3K19); compound concentration 1000 nM
kinases (468) (Homo sapiens, UniProt Q56UN5), sequence (Q56UN5 whole entry): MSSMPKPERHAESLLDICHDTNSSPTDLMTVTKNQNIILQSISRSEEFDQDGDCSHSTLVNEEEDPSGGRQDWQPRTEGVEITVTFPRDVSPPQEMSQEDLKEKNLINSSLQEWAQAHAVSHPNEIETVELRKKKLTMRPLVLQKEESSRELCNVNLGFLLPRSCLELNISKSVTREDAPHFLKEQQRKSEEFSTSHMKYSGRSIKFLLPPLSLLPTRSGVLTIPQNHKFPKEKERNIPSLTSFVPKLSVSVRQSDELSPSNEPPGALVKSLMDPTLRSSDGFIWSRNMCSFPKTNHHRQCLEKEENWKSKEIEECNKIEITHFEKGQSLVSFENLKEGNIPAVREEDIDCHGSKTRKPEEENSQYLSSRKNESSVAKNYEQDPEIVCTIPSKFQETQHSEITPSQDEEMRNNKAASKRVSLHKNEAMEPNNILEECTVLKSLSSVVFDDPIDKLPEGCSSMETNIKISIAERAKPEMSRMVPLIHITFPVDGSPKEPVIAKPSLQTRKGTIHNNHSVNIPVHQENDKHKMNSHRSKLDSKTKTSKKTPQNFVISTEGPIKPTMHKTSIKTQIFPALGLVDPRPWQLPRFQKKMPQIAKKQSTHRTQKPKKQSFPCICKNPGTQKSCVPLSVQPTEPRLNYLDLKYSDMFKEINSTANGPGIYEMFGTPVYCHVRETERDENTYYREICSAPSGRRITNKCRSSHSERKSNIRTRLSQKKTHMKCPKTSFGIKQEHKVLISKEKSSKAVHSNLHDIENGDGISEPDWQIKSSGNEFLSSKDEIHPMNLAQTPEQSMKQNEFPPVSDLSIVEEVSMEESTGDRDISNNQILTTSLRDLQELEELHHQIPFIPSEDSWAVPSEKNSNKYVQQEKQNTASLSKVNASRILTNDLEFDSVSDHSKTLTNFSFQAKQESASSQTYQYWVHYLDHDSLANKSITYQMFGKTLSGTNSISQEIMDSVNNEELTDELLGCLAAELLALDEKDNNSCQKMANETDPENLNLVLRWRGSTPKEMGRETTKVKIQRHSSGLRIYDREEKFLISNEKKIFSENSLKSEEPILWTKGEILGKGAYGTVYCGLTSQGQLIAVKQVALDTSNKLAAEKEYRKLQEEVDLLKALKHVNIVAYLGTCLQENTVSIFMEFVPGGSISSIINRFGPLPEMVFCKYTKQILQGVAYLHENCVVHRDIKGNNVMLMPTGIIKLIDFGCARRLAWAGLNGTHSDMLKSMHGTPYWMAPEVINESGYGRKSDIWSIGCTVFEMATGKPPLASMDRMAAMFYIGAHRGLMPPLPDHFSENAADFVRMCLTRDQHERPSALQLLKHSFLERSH

kinases (468) [21] = molecular target: kinases (468) (Homo sapiens, UniProt Q6DT37); settings: DMPK2 (CDC42BPG); 1000 nM
kinases (468) [22] = molecular target: kinases (468) (Homo sapiens, UniProt Q86UE8); settings: kinase TLK2 (Entrez TLK2); compound concentration 1000 nM
kinases (468) [23] = molecular target: kinases (468) (Homo sapiens, UniProt Q8IVW4); settings: CDKL3; 1000 nM
kinases (468) [24] = molecular target: kinases (468) (Homo sapiens, UniProt Q8IY84); settings: NIM1 (MGC42105); 1000 nM
kinases (468) [25] = molecular target: kinases (468) (Homo sapiens, UniProt Q8N752); settings: CSNK1A1L; 1000 nM
kinases (468) [26] = molecular target: kinases (468) (Homo sapiens, UniProt Q8TBX8); settings: PIP5K2C (PIP4K2C); 1000 nM
kinases (468) [27] = molecular target: kinases (468) (Homo sapiens, UniProt Q8WTQ7); settings: GRK7; 1000 nM
kinases (468) [28] = molecular target: kinases (468) (Homo sapiens, UniProt Q96PY6); settings: NEK1; 1000 nM
kinases (468) [29] = molecular target: kinases (468) (Homo sapiens, UniProt Q9H093); settings: kinase SNARK (Entrez NUAK2); compound concentration 1000 nM
kinases (468) [30] = molecular target: kinases (468) (Homo sapiens, UniProt Q9H2K8); settings: kinase TAOK3 (Entrez TAOK3); compound concentration 1000 nM
kinases (468) [31] = molecular target: kinases (468) (Homo sapiens, UniProt Q9UL54); settings: kinase TAOK2 (Entrez TAOK2); compound concentration 1000 nM
kinases (468) [32] = molecular target: kinases (468) (Homo sapiens, UniProt Q9UM73); settings: ALK; 1000 nM
kinases (468) [33] = molecular target: kinases (468) (Homo sapiens, UniProt Q9Y2H1); settings: NDR2 (STK38L); 1000 nM
kinases (468) [34] = molecular target: kinases (468) (Homo sapiens, UniProt Q9Y616); settings: IRAK3; 1000 nM

C[C@H]1C[C@@H](O)CN(c2ncc(Cl)c(Nc3ccc4c(c3)c3c(c(=O)n4C)OCC(F)(F)[C@H](C4CC4)N3)n2)C1 [CCT373566_9A]
Percent Control (kinases (468) [1]): 100%
Percent Control (kinases (468) [2]): 91%
Percent Control (kinases (468) [3]): 100%
Percent Control (kinases (468) [4]): 100%
Percent Control (kinases (468) [5]): 100%
Percent Control (kinases (468) [6]): 100%
Percent Control (kinases (468) [7]): 89%
Percent Control (kinases (468) [8]): 100%
Percent Control (kinases (468) [9]): 97%
Percent Control (kinases (468) [10]): 94%
Percent Control (kinases (468) [11]): 87%
Percent Control (kinases (468) [12]): 100%
Percent Control (kinases (468) [13]): 99%
Percent Control (kinases (468) [14]): 100%
Percent Control (kinases (468) [15]): 99%
Percent Control (kinases (468) [16]): 94%
Percent Control (kinases (468) [17]): 100%
Percent Control (kinases (468) [18]): 100%
Percent Control (kinases (468) [19]): 97%
Percent Control (kinases (468) [20]): 100%
Percent Control (kinases (468) [21]): 100%
Percent Control (kinases (468) [22]): 100%
Percent Control (kinases (468) [23]): 100%
Percent Control (kinases (468) [24]): 90%
Percent Control (kinases (468) [25]): 96%
Percent Control (kinases (468) [26]): 82%
Percent Control (kinases (468) [27]): 96%
Percent Control (kinases (468) [28]): 98%
Percent Control (kinases (468) [29]): 100%
Percent Control (kinases (468) [30]): 91%
Percent Control (kinases (468) [31]): 87%
Percent Control (kinases (468) [32]): 98%
Percent Control (kinases (468) [33]): 98%
Percent Control (kinases (468) [34]): 100%
